For nine compounds, IC50 results are on record in BindingDB's records for patent US20250304549 (Sichuan Huiyu Pharmaceutical, 2025).

pIC50: −log10 of the molar value.

By pIC50 is commonly meant the IC50 on a negative log10 scale, so that one unit is a factor of ten. The low end stands for a large IC50, the high end for a small IC50.

The target in test [1] is Lysine-specific histone demethylase 1A (Homo sapiens, UniProt O60341). The test can be described thus: In Vitro Enzyme Inhibition Assay - LSD1. On the procedure:
Initially, a master solution of 90 μM test compound (dissolved in DMSO) was prepared and sequentially diluted with DMSO in a 5-fold concentration gradient to yield a total of 9 concentrations of the compound working solution 1 (90×). Subsequently these 9 concentrations of working solution 1 were sequentially diluted by a 30-fold concentration gradient, i.e., 2 μL of working solution 1 was aspirated and added to 58 μL of Buffer, mixed on a vortex mixer with sufficient shaking to yield 9 concentrations of the screening test compound working solution 2 (3×). […] The mixture was incubated at room temperature for 15 minutes. […] Afterward, 2 μL of a termination solution (containing 5.4 mM 2-PCPA) was added to each well, mixed evenly, and incubated for another 15 minutes. Finally 4 μL of a pre-mixed antibody solution of Eu-anti H3K4 (PerkinElmer, TRF0404-D) and allophycocyanin (Prozyme, PJ27S) (1:1) was added to each well, mixed evenly, and incubated for 60 minutes.

Test [2] addresses Histone deacetylase 1 (Homo sapiens, UniProt Q13547). Kind of test: In Vitro Enzyme Inhibition Assay - HDAC. On the procedure: (§1) The effect of the compound on the enzymatic activity of pan-HDAC and two isoforms (HDAC1 and HDAC8) was examined using the HDAC-Glo I/II Assay and Screening System assay to assess the level of inhibition of HDAC protease activity and selectivity in each isoform. The proteins and detection reagents were from the HDAC-Glo™ I/II Assay and Screening System (Promega). A 1 mM stock solution of the compound was prepared in DMSO and diluted in a 5-fold gradient to create a series of 8 concentrations, and a specific volume of the highest concentration was diluted 25 times with HDAC Buffer to obtain 4× working solution of the compound. […] The 384-well plate was then read on a multifunctional microplate reader, with the Luminescence channel selected to record Luminescence values (RLU).

Test [3] concerns the target T1, Histone deacetylase 8 (Homo sapiens, UniProt Q9BY41).
T1 sequence (Q9BY41 whole entry): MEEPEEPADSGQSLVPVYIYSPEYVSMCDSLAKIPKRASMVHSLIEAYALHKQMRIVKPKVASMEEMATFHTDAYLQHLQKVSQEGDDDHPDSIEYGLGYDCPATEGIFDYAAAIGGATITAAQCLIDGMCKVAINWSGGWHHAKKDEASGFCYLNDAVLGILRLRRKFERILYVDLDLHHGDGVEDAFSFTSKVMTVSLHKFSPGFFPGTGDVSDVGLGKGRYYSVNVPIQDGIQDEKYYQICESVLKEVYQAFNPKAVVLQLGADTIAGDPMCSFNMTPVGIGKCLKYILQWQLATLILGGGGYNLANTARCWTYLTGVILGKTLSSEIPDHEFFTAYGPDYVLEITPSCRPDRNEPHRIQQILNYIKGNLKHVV
Kind of test: In Vitro Enzyme Inhibition Assay - HDAC. The procedure:
as §1

Test [4] addresses Histone deacetylase 1/8 (Homo sapiens, UniProt Q13547+Q9BY41). Kind of test: In Vitro Enzyme Inhibition Assay - HDAC. On the procedure: as §1

Histone deacetylase 1/8, sequence (Q13547 whole entry, one chain of several): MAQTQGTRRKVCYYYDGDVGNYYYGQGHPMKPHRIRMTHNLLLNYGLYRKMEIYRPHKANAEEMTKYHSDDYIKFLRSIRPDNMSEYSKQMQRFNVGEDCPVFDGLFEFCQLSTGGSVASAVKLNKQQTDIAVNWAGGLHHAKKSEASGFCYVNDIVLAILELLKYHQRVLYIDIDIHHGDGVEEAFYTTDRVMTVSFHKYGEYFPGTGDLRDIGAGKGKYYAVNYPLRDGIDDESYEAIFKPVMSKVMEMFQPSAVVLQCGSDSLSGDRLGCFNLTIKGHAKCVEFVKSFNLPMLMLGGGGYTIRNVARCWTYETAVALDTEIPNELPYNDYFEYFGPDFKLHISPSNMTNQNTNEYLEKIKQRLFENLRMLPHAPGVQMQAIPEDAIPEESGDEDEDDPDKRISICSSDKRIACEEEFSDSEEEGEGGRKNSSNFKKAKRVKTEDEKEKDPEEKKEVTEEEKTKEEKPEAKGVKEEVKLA
Histone deacetylase 1, sequence (Q13547 whole entry, canonical isoform): as the sequence (Q13547 whole entry, one chain of several) above

As for `COC1=C(OCCCCCCC(=O)NO)CC(C2=C(c3ccc(C#N)c(F)c3)N=C(N3CCC(N)CC3)N3C=CNC23)C=C1` (stereo not given) [US20250304549, Example 20], the values for the pIC50 in test [1], in test [2] and in test [3] were 7.77, 6.51 and 6.35, respectively.
The matching figures for `CNC1CCN(C2N=CC(c3ccc(OCCCCCCC(=O)NO)c(O)c3)=C(c3ccc(C#N)c(F)c3)C2C#N)CC1` (stereo not given) [US20250304549, Example 24]: 9.39, 8.08 and 6.93.
Take `COc1ccc(-c2cnc(N3CCC(NCc4ccc(/C=C/C(=O)NO)cc4)CC3)c(F)c2-c2ccc(C#N)c(F)c2)cc1O` [US20250304549, Example 76]: the pIC50 in test [4] was 8.80; in test [3], 6.80.
Regarding `N#Cc1ccc(-c2c(-c3ccc(/C=C/C(=O)NO)c(O)c3)cnc(N3CCC(NCc4ccc(/C=C/C(=O)NO)cc4)CC3)c2C#N)cc1F` [US20250304549, Example 90], the pIC50 in test [1] was 8.10; in test [2], 7.97; in test [4], 7.71; in test [3], 7.20.
Consider `Cc1ccc(-c2cnc(N3CCC(NCc4cnc(/C=C/C(=O)NO)nc4)CC3)c(C#N)c2-c2ccc(C#N)c(F)c2)cc1O` [US20250304549, Example 148], for which the pIC50 in test [1] is 8.98; in test [2], 9.37; in test [4], 8.61; in test [3] it was 7.23.
The matching figures for `COc1ccc(-c2cnc(N3CCCC(NCc4ccc(/C=C/C(=O)NO)cc4)CC3)c(C#N)c2-c2ccc(C#N)c(F)c2)cc1O` (stereo not given) [US20250304549, Example 149]: 9.27, 9.30, 8.98 and 7.23.
For `COc1ccc(-c2cnc(N3CCC(NCc4ccc(/C=C/CC(=O)NO)cc4)CC3)c(C#N)c2-c2ccc(C#N)c(F)c2)cc1O` [US20250304549, Example 169], the results for the pIC50 in test [1], in test [4] and in test [3] were 9.38, 7.29 and 5.85, respectively.
Compound `O=C(/C=C/c1ccc(CNC(=O)c2cc(CN[C@@H]3C[C@H]3c3ccc(F)cc3)nc(-c3ccc(-n4cccn4)cc3)n2)cc1)NO` [US20250304549, Example 232] showed a pIC50 in test [4] of 6.94.
For the compound `COc1ccc(C2=C(C3C=NC(C#N)=CC3)C(C#N)C(N3CCC(NCc4ccc(/C=C/C(=O)NO)cc4)CC3)C=C2)cc1O` (stereo not given) [US20250304549, Example 267], the pIC50 in test [1] was 8.13.
